Results as given in patent US20120141597A1 (priority 2009, published 2012).

System: Leptosphaeria nodorum (LEPTNO)
Assay: In vitro fungitoxicity (growth inhibition) in copper-minus and copper-plus liquid medium
Format: cell-based
Details: CuCl2 10 μM, no test compound, copper-plus vs copper-minus medium, across experiments
Procedure: In vitro fungitoxicity assays against Leptosphaeria nodorum (LEPTNO) were conducted using the liquid growth medium described by Coursen and Sisler (American Journal of Botany 1960, 47, 541-549) except that copper micronutrient, normally included as CuSO4, was omitted. The medium, termed “copper-minus”, was prepared by dissolving 10 g glucose, 1.5 g K2HPO4, 2 g KH2PO4 and 1 g (NH4)2SO4 in 1 liter of deionized water and treating the solution with 0.5 g Chelex 100 resin (Bio-Rad Analytical grade, 50-100 mesh, sodium form, cat#142-2822) by stirring at room temperature for 1 h. MgSO4.7H2O (0.5 g) was added, and stirring was continued for a further hour. Trace elements (minus CuSO4), and vitamins described by Coursen and Sisler were added from concentrated stock solutions and the entire medium was sterilized by filtration. […]
LEPTNO was grown on potato dextrose agar in 9 cm diameter petri dishes for 7 days. […] The spores were resuspended in copper-minus medium, and the suspension adjusted to 2×10^5 spores per mL Microtiter plates were inoculated with 100 μL of this spore suspension and the plates incubated at 25° C. for 72 h before assessing fungal growth by measuring light scattering in a NepheloStar plate reader. Growth inhibition was determined by comparing growth in the presence of test compound with growth in control wells lacking test compound. […]

## O.O.[Cl][Cu][Cl] [CuCl2, CuCl2.2H2O]
  LEPTNO % Inhn. attributed to copper chloride alone: 7.1 ± 6.0%
